Data taken from ChEMBL document CHEMBL4819125, “Synthesis and anti-proliferation activity of mogrol derivatives bearing quinoline and triazole moieties” (Bioorg Med Chem Lett, 2021).
The source made the active and inactive calls. The rule behind the calls is not given here.

Experiments:
A549 [1] = assay: Induction of apoptosis in human A549 cells assessed as viable cells at 3.75 uM incubated for 72 hrs by annexin V-FITC and PI staining based flow cytometry analysis (reference value: 95.98 %); format: functional; details: read-out: Activity
A549 [2] = assay: Induction of apoptosis in human A549 cells assessed as viable cells at 7.5 uM incubated for 72 hrs by annexin V-FITC and PI staining based flow cytometry analysis (reference value: 95.98 %); format: functional; details: read-out: Activity
A549 [3] = assay: Induction of apoptosis in human A549 cells assessed as necrotic cells at 15 uM incubated for 72 hrs by annexin V-FITC and PI staining based flow cytometry analysis (reference value: 1.27 %); format: functional
[4] = biological target: Signal transducer and activator of transcription 3 (Homo sapiens) (UniProt P40763); assay: Inhibition of STAT3 in human A549 cells assessed as reduction in STAT3 phosphorylation incubated for 72 hrs by Western blot analysis; format: cell-based; details: dose 3.75-15 µM
Signal transducer and activator of transcription 3 (Homo sapiens), sequence (P40763 whole entry): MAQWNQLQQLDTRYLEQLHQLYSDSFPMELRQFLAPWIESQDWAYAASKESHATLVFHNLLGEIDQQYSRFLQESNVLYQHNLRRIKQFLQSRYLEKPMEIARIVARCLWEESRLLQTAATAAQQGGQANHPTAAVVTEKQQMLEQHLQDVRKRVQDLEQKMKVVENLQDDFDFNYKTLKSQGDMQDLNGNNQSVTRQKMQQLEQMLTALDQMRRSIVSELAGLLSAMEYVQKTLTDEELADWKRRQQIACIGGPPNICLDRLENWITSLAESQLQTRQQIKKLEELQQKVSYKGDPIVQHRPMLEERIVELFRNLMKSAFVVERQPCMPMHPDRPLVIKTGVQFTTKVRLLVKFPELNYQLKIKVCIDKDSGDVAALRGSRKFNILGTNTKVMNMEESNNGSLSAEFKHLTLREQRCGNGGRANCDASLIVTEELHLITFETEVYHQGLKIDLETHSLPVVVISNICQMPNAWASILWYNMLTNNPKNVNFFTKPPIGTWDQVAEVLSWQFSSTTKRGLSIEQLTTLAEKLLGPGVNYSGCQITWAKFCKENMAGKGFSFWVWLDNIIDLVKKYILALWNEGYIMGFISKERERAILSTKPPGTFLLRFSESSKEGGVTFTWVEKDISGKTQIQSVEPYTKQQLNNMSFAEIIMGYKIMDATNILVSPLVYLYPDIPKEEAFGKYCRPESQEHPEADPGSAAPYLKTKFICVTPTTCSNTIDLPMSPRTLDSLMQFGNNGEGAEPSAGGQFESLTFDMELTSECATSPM

A549 [5] = assay: Induction of cell cycle arrest in human A549 cells assessed as G2/M phase at 15 uM incubated for 72 hrs by PI staining based flow cytometry analysis (reference value: 14.78 %); format: functional
A549 [6] = assay: Induction of cell cycle arrest in human A549 cells assessed as G0/G1 phase at 15 uM incubated for 72 hrs by PI staining based flow cytometry analysis (reference value: 53.87 %); format: functional
A549 [7] = assay: Induction of cell cycle arrest in human A549 cells assessed as G0/G1 phase at 3.75 uM incubated for 72 hrs by PI staining based flow cytometry analysis (reference value: 53.87 %); format: functional
A549 [8] = assay: Induction of apoptosis in human A549 cells assessed as late apoptotic cells at 3.75 uM incubated for 72 hrs by annexin V-FITC and PI staining based flow cytometry analysis (reference value: 0.5 %); format: functional
A549 [9] = assay: Induction of apoptosis in human A549 cells assessed as late apoptotic cells at 7.5 uM incubated for 72 hrs by annexin V-FITC and PI staining based flow cytometry analysis (reference value: 0.5 %); format: functional
A549 [10] = assay: Antiproliferative activity against human A549 cells assessed as reduction in cell growth by CCK8 assay; format: functional, cell-based
A549 [11] = assay: Induction of apoptosis in human A549 cells assessed as late apoptotic cells at 15 uM incubated for 72 hrs by annexin V-FITC and PI staining based flow cytometry analysis (reference value: 0.5 %); format: functional
A549 [12] = assay: Induction of apoptosis in human A549 cells assessed as early apoptotic cells incubated for 72 hrs by annexin V-FITC and PI staining based flow cytometry analysis; format: functional, cell-based; details: dose 3.75-15 µM
A549 [13] = assay: Induction of apoptosis in human A549 cells assessed as necrotic cells at 3.75 uM incubated for 72 hrs by annexin V-FITC and PI staining based flow cytometry analysis (reference value: 1.27 %); format: functional
A549 [14] = assay: Induction of apoptosis in human A549 cells assessed as necrotic cells at 7.5 uM incubated for 72 hrs by annexin V-FITC and PI staining based flow cytometry analysis (reference value: 1.27 %); format: functional
A549 [15] = assay: Induction of apoptosis in human A549 cells assessed as early apoptotic cells at 15 uM incubated for 72 hrs by annexin V-FITC and PI staining based flow cytometry analysis (reference value: 2.25 %); format: functional
A549 [16] = assay: Antiproliferative activity against human A549 cells assessed as reduction in cell growth at 30 uM by CCK8 assay relative to control; format: functional
A549 [17] = assay: Induction of cell cycle arrest in human A549 cells assessed as S phase at 3.75 uM incubated for 72 hrs by PI staining based flow cytometry analysis (reference value: 31.35 %); format: functional
A549 [18] = assay: Induction of apoptosis in human A549 cells assessed as early apoptotic cells at 3.75 uM incubated for 72 hrs by annexin V-FITC and PI staining based flow cytometry analysis (reference value: 2.25 %); format: functional
A549 [19] = assay: Induction of cell cycle arrest in human A549 cells assessed as S phase at 7.5 uM incubated for 72 hrs by PI staining based flow cytometry analysis (reference value: 31.35 %); format: functional
A549 [20] = assay: Induction of apoptosis in human A549 cells assessed as early apoptotic cells at 7.5 uM incubated for 72 hrs by annexin V-FITC and PI staining based flow cytometry analysis (reference value: 2.25 %); format: functional
NCI-H460 = assay: Antiproliferative activity against human NCI-H460 cells assessed as reduction in cell growth at 30 uM by CCK8 assay relative to control; format: functional
A549 [21] = assay: Induction of cell cycle arrest in human A549 cells assessed as G2/M phase at 7.5 uM incubated for 72 hrs by PI staining based flow cytometry analysis (reference value: 14.78 %); format: functional
A549 [22] = assay: Induction of apoptosis in human A549 cells assessed as viable cells at 15 uM incubated for 72 hrs by annexin V-FITC and PI staining based flow cytometry analysis (reference value: 95.98 %); format: functional; details: read-out: Activity
A549 [23] = assay: Induction of cell cycle arrest in human A549 cells assessed as G2/M phase at 3.75 uM incubated for 72 hrs by PI staining based flow cytometry analysis (reference value: 14.78 %); format: functional
A549 [24] = assay: Effect on STAT3 expression in human A549 cells at 3.75 to 15 uM incubated for 72 hrs by Western blot analysis; format: functional, cell-based; details: dose 3.75-15 µM
A549 [25] = assay: Induction of apoptosis in human A549 cells assessed as late apoptotic cells incubated for 72 hrs by annexin V-FITC and PI staining based flow cytometry analysis; format: functional, cell-based; details: dose 3.75-15 µM
A549 [26] = assay: Induction of cell cycle arrest in human A549 cells assessed as S phase at 15 uM incubated for 72 hrs by PI staining based flow cytometry analysis (reference value: 31.35 %); format: functional
A549 [27] = assay: Induction of cell cycle arrest in human A549 cells assessed as G0/G1 phase incubated for 72 hrs by PI staining based flow cytometry analysis; format: functional; details: dose 3.75-15 µM
A549 [28] = assay: Induction of cell cycle arrest in human A549 cells assessed as G0/G1 phase at 7.5 uM incubated for 72 hrs by PI staining based flow cytometry analysis (reference value: 53.87 %); format: functional

`C[C@H](CC[C@@H](O)C(C)(C)O)[C@H]1CC[C@@]2(C)[C@@H]3CC=C4[C@@H](CC[C@H](O)C4(C)C)[C@]3(C)[C@H](OC(=O)Cn3cc(-c4cccc(Cl)c4)nn3)C[C@]12C` gave a viability at 3.75 µM (A549 [1]) of 94.9%, a viability at 7.5 µM (A549 [2]) of 91.7% and an Activity (A549 [3]) of 1.92%. For the same molecule, the inhibition [4] was “Dose-Dependent Effect”, the Activity (A549 [5]) was 11.25% and the Activity (A549 [6]) was 72.72%. The Activity (A549 [7]) was 55.45%, the Activity (A549 [8]) was 0.79% and the Activity (A549 [9]) was 1.27%. For the same molecule, the IC50 (A549 [10]) was 4.47 µM, the Activity (A549 [11]) was 1.53% and the Activity (A549 [12]) was “Dose-Dependent Effect”. The Activity (A549 [13]) was 2.07%, the Activity (A549 [14]) was 3.37% and the Activity (A549 [15]) was 4.8%. The inhibition at 30 µM (A549 [16]) was 90.2%, the Activity (A549 [17]) was 30.62% and the Activity (A549 [18]) was 2.28%. The Activity (A549 [19]) was 28.46%, the Activity (A549 [20]) was 3.66% and the inhibition at 30 µM (NCI-H460) was 33.8%. For the same molecule, the Activity (A549 [21]) was 11.5%, the viability at 15 µM (A549 [22]) was 91.7% and the Activity (A549 [23]) was 13.93%. The inhibition (A549 [24]) was “Active”, the Activity (A549 [25]) was “Dose-Dependent Effect” and the Activity (A549 [26]) was 16.03%. The Activity (A549 [27]) was “Dose-Dependent Effect” and the Activity (A549 [28]) was 60.04%.
